Measurements from patent US9278915B2, “Agonists of GPR40” (CONNEXIOS LIFE SCIENCES PVT LTD, priority 2010, dated 2016).

What follows are molecules tested against T1, hGPR40 (Homo sapiens, UniProt O14842) (assay: Calcium flux assay to detect GPR40 activation). Details: CHO-K cells stably expressing hGPR40; Fluo-4 NW; read for 4 min at 5 s intervals.
T1 construct: expressed in transfected cells
Type: cell-based
Outline: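 CHO-K cells stably expressing hGPR40 were cultured 24 h at 37 °C and loaded with Fluo-4 NW for 30 min at 37 °C plus 30 min at RT. Compounds diluted in HEPES buffer were added, and calcium fluorescence was recorded for 4 min at 5 s intervals.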

T1 sequence (O14842 whole entry): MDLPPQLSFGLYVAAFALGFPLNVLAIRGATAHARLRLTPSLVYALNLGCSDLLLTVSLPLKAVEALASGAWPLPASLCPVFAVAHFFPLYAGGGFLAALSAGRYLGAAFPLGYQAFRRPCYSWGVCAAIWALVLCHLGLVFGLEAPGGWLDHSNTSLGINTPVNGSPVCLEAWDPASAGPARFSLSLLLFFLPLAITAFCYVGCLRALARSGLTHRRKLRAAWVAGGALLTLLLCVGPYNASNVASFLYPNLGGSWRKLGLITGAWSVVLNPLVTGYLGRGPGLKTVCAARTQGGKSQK

`CO/N=C(\COc1ccc(CNc2ccc(-c3onc(C)c3CCC(=O)O)cc2)cc1)c1ccc(C#N)cc1` [Compound 72, 3-(5-{4-[(4-{[(2E,2Z)-2-(4-Cyanophenyl)-2-(methoxyimino)ethyl]oxy}benzyl)amino]phenyl}-3-methyl-1,2-oxazol-4-yl)propanoic acid] and `CO/N=C(\COc1ccc(COc2ccc(CCC(=O)O)c(OCC#N)c2)cc1)c1ccccc1` [Compound 88, 3-{2-(Cyanomethoxy)-4-[(4-{[(2Z)-2-(methoxyimino)-2-phenylethyl]oxy}benzyl)oxy]phenyl}propanoic acid] cannot be ordered by EC50: > 100 nM for the first, > 100 nM for the second.

`CO/N=C(\COc1ccc(COc2ccc(CCC(=O)O)cn2)cc1)c1ccccc1` [Compound 114, 3-{6-[(4-{[(2Z)-2-(Methoxyimino)-2-phenylethyl]oxy}benzyl)oxy]pyridin-3-yl}propanoic acid] and `CO/N=C(/COc1ccc(COc2ccc(COCC(=O)O)cc2)cc1)c1ccccc1` [Compound 30, ({4-[(4-{[(2E,2Z)-2-(Methoxyimino)-2-phenylethyl]oxy}benzyl)oxy]benzyl}oxy)acetic acid] cannot be ordered by EC50: > 100 nM for the first, > 100 nM for the second.

First: CO/N=C(\COc1ccc(COc2ccc(CCC(=O)O)c(F)c2)cc1OC)c1ccccc1 [Compound 41, 3-{2-Fluoro-4-[(3-methoxy-4-{[(2E,2Z)-2-(methoxyimino)-2-phenylethyl]oxy}benzyl)oxy]phenyl}propanoic acid]
Second: CO/N=C(\COc1ccc(COc2ccc(CCC(=O)O)c(OC(C)C)c2)cc1)c1ccccc1 [Compound 60, 3-{4-[(4-{[(2Z)-2-(Methoxyimino)-2-phenylethyl]oxy}benzyl)oxy]-2-(propan-2-yloxy)phenyl}propanoic acid]
The EC50 of the first is lower: 10 to 100 nM for the first, > 100 nM for the second.

`CO/N=C(/COc1ccc(COc2ccc(C(C#N)CC(=O)O)cc2)cc1)c1ccccc1` (racemic) [Compound 98, 3-Cyano-3-{4-[(4-{[(2E)-2-(methoxyimino)-2-phenylethyl]oxy}benzyl)oxy]phenyl}propanoic acid] and `CO/N=C(\COc1ccc(COc2ccc(C(C#N)CC(=O)O)cc2)cc1)C1=Cc2ccccc2C1` (centres unmarked) [Compound 101, 3-Cyano-3-{4-[(4-{[(2Z)-2-(1H-inden-2-yl)-2-(methoxyimino)ethyl]oxy}benzyl)oxy]phenyl}propanoic acid] fall in the same range of EC50: 10 to 100 nM for the first, 10 to 100 nM for the second.

First: CO/N=C(/COc1ccc(COc2ccc(C(C#N)CC(=O)O)cc2)cc1)c1ccccc1 (centres unmarked) [Compound 53, Sodium 3-cyano-3-{4-[(4-{[(2E)-2-(methoxyimino)-2-phenylethyl]oxy}benzyl)oxy]phenyl}propanoate]
Second: CO/N=C(\COc1ccc(COc2ccc(/C(CC(=O)O)=N\Oc3ccccc3)cc2)cc1)c1ccccc1 [Compound 123, (3E,3Z)-3-{4-[(4-{[(2Z)-2-(Methoxyimino)-2-phenylethyl]oxy}benzyl)oxy]phenyl}-3-(phenoxyimino) propanoic acid]
The EC50 of the first is lower: 10 to 100 nM for the first, > 100 nM for the second. The first is the more potent here.

`CO/N=C(/c1ccccc1)c1cccc(CNc2ccc(CCC(=O)O)cc2)c1` [Compound 2, 3-[4-({3-[(E,Z)-(Methoxyimino)(phenyl)methyl]benzyl}amino)phenyl]propanoic acid] showed an EC50 of 10 to 100 nM.
